Results: US20130261173A1, “CYCLODEXTRIN-BASED POLYMERS FOR THERAPEUTIC DELIVERY” (CERULEAN PHARMA INC., priority 2009, published 2013)
Where “and” joins values, the source holds several entries; their conditions need not be identical. Equal entries are not always repeated. Where two headings read alike, the source gives them in different places.

Experiments:
[1] = Tolerability in the murine melanoma model (body weight); assay type: in vivo, male C57BL/6 mice
Protocol: The treatments were administered IV into the tail vein at a dose volume of 10 mL/kg, beginning on post-implantation day 5, when the mean tumor volume was ca. 60 mm^3. Animals were monitored for any morbidity and adverse effect three times a week. In addition, body weight and tumor volume were also measured three times a week.
Tolerability was determined by changes in body weight, expressed as a percent of the initial body weight on post-implantation day 5. Health monitoring was conducted three times a week to evaluate lethargy, tremors, hypothermia, ataxia, hind limb paralysis etc. The criteria at which a mouse was removed from the study were >20% body weight loss or severe morbidity or hind limb paralysis.

B16.F10 cells [2] = assay: CellTiter-Glo Luminescent Cell Viability Assay (cytotoxicity); assay type: cell-based, murine
Protocol: To measure the cytotoxic effect of CDP-linker-docetaxel compounds, the CellTiter-Glo Luminescent Cell Viability Assay (CTG) was used. […] B16.F10 cells, grown to 85-90% confluency in 150 cm2 flasks (passage <30), were resuspended in media (MEM-alpha, 10% HI-FBS, 1×antibiotic-antimycotic solution) and added to 96-well opaque-clear bottom plates at a concentration of 1500 cells/well in 200 μL/well. The cells were incubated at 37° C. with 5% CO2 for 24 hours. The following day, serial dilutions of 2× concentrated particles and 2× concentrated free drug were made in 12-well reservoirs with media to specified concentrations. The media in the plates was replaced with […], of fresh media and 100 μL of the corresponding serially diluted drug. Three sets of plates were prepared with duplicate treatments. Following 24, 48 and 72 hours of incubation at 37° C. with 5% CO2, the media in the plates was replaced with 100 μL of fresh media and 100 μL of CTG solution, and then incubated for 5 minutes on a plate shaker at room temperature set to 450 rpm and allowed to rest for 15 minutes. Viable cells were measured by luminescence using a microtiter plate reader. The data was plotted as % viability vs. concentration and standardized to untreated cells.

B16.F10 cells [3] = assay: Efficacy in a murine melanoma model (subcutaneous B16.F10 tumors); assay type: in vivo, male C57BL/6 mice
Protocol: Animals were monitored for any morbidity and adverse effect three times a week.
Tumor volume was calculated with a (width×width×length)/2 mm^3 formula.

[4] = 15 mg/kg IV, weekly schedule for 3 injections
[5] = 30 mg/kg IV, weekly schedule for 3 injections (study of 1.4, 2.3, 4.2, 5.2)
[6] = 15 mg/kg IV, three injections over 2 weeks (twice per week)
[7] = 30 mg/kg IV, biweekly schedule for 2 injections
[8] = 30 mg/kg IV, weekly schedule for 3 injections (study of 1.5)
[9] = 15 mg/kg IV, three injections over 2 weeks (twice per week), listed as free docetaxel

CDP-2′-aminoethoxyethoxy-Docetaxel [CDP-aminoethoxyethoxy-DTX formulation]
Maximum body weight loss (%) [1, 4]: 7%
Maximum body weight loss (%) [1, 5]: 23%

CDP-2′-alanine glycolate-docetaxel [CDP-Ala Gly-DTX formulation]
IC50 (B16.F10 cells [2]): 0.4 to 2 nM

CDP-dithiolethyloxy-carbonate-docetaxel [CDP-ethane-S—S-ethane-DTX formulation]
IC50 (B16.F10 cells [2]): 23 nM
Maximum body weight loss (%) [1, 4]: 0%
Maximum body weight loss (%) [1, 5]: 0%
day the mean tumor volume endpoint (≧3000 mm^3) was reached (B16.F10 cells [3]; mouse, in vivo): 21 days and 24 days

CC(=O)O[C@@]12CO[C@@H]1C[C@H](O)[C@@]1(C)C(=O)[C@H](O)C3=C(C)[C@@H](OC(=O)[C@H](O)[C@@H](NC(=O)OC(C)(C)C)c4ccccc4)C[C@@](O)([C@@H](OC(=O)c4ccccc4)[C@H]21)C3(C)C [Free docetaxel, docetaxel, reference compound]
IC50 (B16.F10 cells [2]; Mus musculus, B16.F10 cells, 72 hours after treatment): 0.2 to 2 nM
Maximum body weight loss (%) [1, 6]: 3%
Maximum body weight loss (%) [1, 4]: 0%
Maximum body weight loss (%) [1, 7]: 5%
Maximum body weight loss (%) [1, 5]: 8%
Maximum body weight loss (%) [1, 8]: 12%
Tumor growth delay (TGD) (B16.F10 cells [3]; [6]): 15 days
Tumor growth inhibition (% TGI) (B16.F10 cells [3]; [6]): 97%
increase in TGD (B16.F10 cells [3]; [6]): 79%
Tumor growth inhibition (% TGI) (B16.F10 cells [3]; [9]): 97%
day the mean tumor volume endpoint (≧3000 mm^3) was reached (B16.F10 cells [3]; [9]): 34 days and 35 days
survival (B16.F10 cells [3]; 15 mg/kg IV, three injections over 2 weeks, day 33): 50%
survival (B16.F10 cells [3]; 15 mg/kg IV, three injections over 2 weeks, day 40): 0%
Tumor growth delay (TGD) (B16.F10 cells [3]; [4]): 7 days
Tumor growth inhibition (% TGI) (B16.F10 cells [3]; [4]): 68%
day the mean tumor volume endpoint (≧3000 mm^3) was reached (B16.F10 cells [3]; [4]): 26 days
increase in TGD (B16.F10 cells [3]; [4]): 37%
Tumor growth inhibition (% TGI) (B16.F10 cells [3]; 15 mg/kg IV, weekly schedule for 3 injections, listed as free docetaxel): 68%
survival (B16.F10 cells [3]; 30 mg/kg IV, biweekly for 2 injections, day 24): 50%
survival (B16.F10 cells [3]; 30 mg/kg IV, biweekly for 2 injections, day 31): 0%
Tumor growth delay (TGD) (B16.F10 cells [3]; [7]): 7 days
Tumor growth inhibition (% TGI) (B16.F10 cells [3]; [7]): 73%
day the mean tumor volume endpoint (≧3000 mm^3) was reached (B16.F10 cells [3]; [7]): 26 days
Tumor growth inhibition (% TGI) (B16.F10 cells [3]; 30 mg/kg IV, biweekly schedule for 2 injections, listed as free docetaxel): 73%
survival (B16.F10 cells [3]; 30 mg/kg IV, weekly for 3 injections (study of 1.4, 2.3, 5.2), day 29): 50%
survival (B16.F10 cells [3]; 30 mg/kg IV, weekly for 3 injections (study of 1.4, 2.3, 5.2), day 38): 0%
survival (B16.F10 cells [3]; 30 mg/kg IV, weekly for 3 injections (study of 1.5), day 40): 50%
survival (B16.F10 cells [3]; 30 mg/kg IV, weekly for 3 injections (study of 1.5), day 45): 0%
Tumor growth delay (TGD) (B16.F10 cells [3]; [5]): 12 days
day the mean tumor volume endpoint (≧3000 mm^3) was reached (B16.F10 cells [3]; [5]): 31 days
increase in TGD (B16.F10 cells [3]; [5]): 63%
Tumor growth delay (TGD) (B16.F10 cells [3]; [8]): 21 days
day the mean tumor volume endpoint (≧3000 mm^3) was reached (B16.F10 cells [3]; [8]): 41 days
increase in TGD (B16.F10 cells [3]; [8]): 105%

CDP-2′-hexanoate-docetaxel [CDP-Hex-DTX formulation]
IC50 (B16.F10 cells [2]): 325 to 440 nM
Tumor growth delay (TGD) (B16.F10 cells [3]; mouse, in vivo): 10 days
Tumor growth inhibition (% TGI) (B16.F10 cells [3]; mouse, in vivo): 66%
increase in TGD (B16.F10 cells [3]; mouse, in vivo): 53%

CDP-2′-glycine-docetaxel [CDP-Gly-DTX formulation]
IC50 (B16.F10 cells [2]; B16.F10 cells, 72 hours after treatment): 1.2 to 3.7 nM
